Measurements: patent US6458981B1, “Composition and method for preparing amino acid chelate hydroxides free of interfering ions” (Albion International, Inc., priority 2000, dated 2002)

Experiments:
[1] = Rubbing a portion between thumb and finger (hygroscopicity); assay type: physicochemical; details: rubbed between the thumb and finger; moisture from thumb, finger and surrounding air
Text: Sample 1 was further compared to Sample 2 by rubbing a portion of each between the thumb and finger.

[2] = Shaking the powder in a plastic bag (electrostatic behaviour); assay type: physicochemical; details: shaken in a plastic bag
Protocol: A 10:1 mixture of copper glycinate to terra alba (CaSO4) [Sample 1] was prepared and shaken together in a plastic bag. Next, a pure copper glycinate without the presence of terra alba [Sample 2] was also prepared and shaken in a plastic bag.

Particle size = assay type: physicochemical
Text: The particle size found in Sample 1 and Sample 2 was about 70 mesh.

[3] = Addition to stimulated gastric solution (stability in an acid environment); assay type: physicochemical; details: added to a stimulated gastric solution
Text: Sample 1 was similarly added to a stimulated gastric solution.

[4] = zero ionic strength; reaction M^2+ + (Gly)^- <-> M(Gly)^+; cited from earlier work

Row | Compound | hygroscopicity: balling up with moisture [1] | electrostatic behaviour: product sticking to the walls of the bag [2] | particle size (Particle size) | color change in stimulated gastric solution (stability in acid environment) [3] | log of the equilibrium constant [4]
1 | NCC(=O)[O-].NCC(=O)[O-].[Cu+2] [Sample 2, copper glycinate] | quickly balled up with moisture | a blue haze of product stuck the walls of the bag | about 70 mesh | caused the product to change color | 
2 | copper |  |  |  |  | 8.56
